Measurements from US6878742B2, “Heterocyclic sulfonamide inhibitors of beta amyloid production” (Wyeth, priority 2000, dated 2005).
Read-outs that look alike come from different tables or passages of the source.

Tested on: amyloid precursor protein (APP) proteolysis
Experiment: Repressor Release Assay (RRA)
Type: cell-based
Details: read-out: APPI Fold Increase
Procedure: The beta amyloid inhibitory activity of many of the compounds of the present invention has been determined using the Repressor Release Assay (RRA). See, Table 23 below. A compound is considered active in RRA if it leads to at least a 1.5 fold increase in luciferase activity at 20 μM and is non-toxic.
The compounds generated as described in Examples 1 through 220 were tested in the RRA in accordance with published techniques [Shuey, D. J., Sheiffele, P., Jones, D., Cockett, M. I., and Quinet, E. M. (1999), “Repressor release: a useful tool for monitoring amyloid precursor protein (APP) proteolysis in mammalian cells”, Society for Neuroscience Abstracts, Vol. 25, 29th Annual Meeting of Society for Neuroscience, Miami Beach, Fla., Oct. 23-28, 1999]. Briefly, this assay is performed as follows.
CHO-K1 cells are cultured in whole DMEM media (DMEM—High Glucose with 10% fetal bovine serum, 1% Non-essential Amino Acids, and 1% Penicillin-Streptomycin) at 37° C. with 5% CO2. Two million cells are plated into 10-cm dishes 24 hrs prior to transfection.
Transient transfections are completed as recommended by Gibco BRL using their Lipofectamine Plus system. First, 6 μg of pRSVO-luc and 6 μg of APP-lacI construct DNA are added to 460 μL Opti-Mem transfection media and incubated with 30 μL Plus reagent for 15 minutes. Then, a lipid mixture of 40 μL Lipofectamine reagent and 460 μL Opti-Mem transfection media is incubated with the DNA-Plus reagent mixture for 15 minutes. During the DNA-lipid incubation, the CHO-K1 cells are washed once and covered in 5.0 mL DMEM media without Penicillin-Streptomycin. The DNA-lipid preparation is then layered onto these cells and incubated at 37° C. overnight.
One and one half million transfected cells per well (100 μL total volume) are plated into sterile, opaque Packard 96-well Cultur-Plates in clear DMEM whole media (DMEM—without phenol red) and incubated at 37° C. with 5% CO2 for 3-5 hours.
Compounds are diluted using two different protocols; one protocol is used for compounds supplied neat (weighed powder in vial) and the other protocol is used for compounds supplied in solution (20 mM in DMSO in 96-well plates). For both protocols, 25 mM Hepes and 25 mM Hepes/1% DMSO are prepared fresh to be used as diluent. The Hepes/DMSO is used as the diluent control on all experimental plates.
The following table depicts the steps for compound dilution (please note that the last step is the addition of compound to cells/media in tissue culture plate):
Because some compounds arrive in 96-well format at 20 mM, the following represents the protocol for their dilution (note that an average molecular weight of these compounds was used to calculate these dilutions and as above, the last step is the addition of compound to cells/media in tissue culture plate):
Once compounds are diluted, they are applied in duplicate on cells in tissue culture plates (prepared above). Cells are incubated with compound at 37° C. with 5% CO2 for an additional 36-48 hours.
Luciferase assays (LucLite reagent, Packard) are performed and are read on a Packard TopCount instrument. Media is removed from each 96-well plate and replaced with 100 μL PBS per well (with Mg^2+ and Ca^2+). An equal volume (100 μL) of the LucLite lysis/substrate buffer is added to each well and the plates are sealed and mixed in the dark on a rotary shaker for 15-30 minutes at room temperature. Luciferase readings are then taken on the TopCount instrument. Measurements are expressed as relative light units (RLU) and are calculated and analyzed in MS Excel as follows.
A compound is considered active in RRA if it leads to at least a 1.5 fold increase in luciferase activity at 20 μM and is non-toxic, as determined by loss of signal (≦0.75 fold increase). Fold increase is the amount of luciferase activity (measured in relative light units) over diluent control. SEM represents the standard error of the mean for fold increase (not shown).

[1] = Conc 20 μg/mL, luciferase activity over diluent control

SMILES	fold induction at 20 µg/mL [1]	fold induction at 20 µg/mL
CCC(C)C(C)C(CO)NS(=O)(=O)c1ccc(Cl)s1 (stereo not shown) [Example 19, 5-Chloro-N-[1-(hydroxymethyl)-2,3-dimethylpentyl]thiophene-2-sulfonamide]	6	
CCCC(C)C(CO)NS(=O)(=O)c1ccc(Cl)s1 (stereo not shown) [Example 20, 5-chloro-N-[1-(hydroxymethyl)-2-methylpentyl]thiophene-2-sulfonamide]		5
CCCCC(CC)C(CO)NS(=O)(=O)c1ccc(Cl)s1 (stereo not shown) [Example 21, 5-chloro-N-[2-ethyl-1-(hydroxymethyl)hexyl]thiophene-2-sulfonamide]		3.3
CC1=CC(C)C(C(CO)NS(=O)(=O)c2ccc(Cl)s2)C(C)C1 (stereo not shown) [Example 22, 5-chloro-N-[2-hydroxy-1-(2,4,6-trimethylcyclohex-3-en-1-yl)ethyl]thiophene-2-sulfonamide]		7
O=S(=O)(NC(CO)C1CC=CCC1)c1ccc(Cl)s1 (stereo not shown) [Example 23, 5-chloro-N-(1-cyclohex-3-en-1-yl-2-hydroxyethyl)thiophene-2-sulfonamide]		6.4
O=S(=O)(NC(CO)C1CCCC1)c1ccc(Cl)s1 (stereo not shown) [Example 24, 5-chloro-N-(1-cyclopentyl-2-hydroxyethyl)thiophene-2-sulfonamide]		6
CC(C)[C@@](C)(CO)NS(=O)(=O)c1ccc(Br)s1 [Example 25, 5-Bromo-N-[(1S)-1-(hydroxymethyl)-1,2-dimethylpropyl]thiophene-2-sulfonamide]	7.5	
CC(C)[C@@](C)(CO)NS(=O)(=O)c1ccc(Cl)s1 [Example 26, 5-chloro-N-[(1S)-1-(hydroxymethyl)-1,2-dimethylpropyl]thiophene-2-sulfonamide]	5	
CC(C)C[C@@H](C)[C@@H](CO)NS(=O)(=O)c1ccc(Cl)s1 [Example 27, 5-Chloro-N-[(1S,2R)-1-(hydroxymethyl)-2,4-dimethylpentyl]thiophene-2-sulfonamide]	8.7	
COc1ccc([C@@H](C)[C@@H](CO)NS(=O)(=O)c2ccc(Cl)s2)cc1 [Example 28, 5-chloro-N-[(1S,2R)-1-(hydroxymethyl)-2-(4-methoxyphenyl)propyl]thiophene-2-sulfonamide]	7	
CCCCCC[C@@H](C)[C@@H](CO)NS(=O)(=O)c1ccc(Cl)s1 [Example 29, 5-chloro-N-[(1S,2R)-1-(hydroxymethyl)-2-methyloctyl]thiophene-2-sulfonamide]	2.6	
CC[C@H](CC(C)C)[C@@H](CO)NS(=O)(=O)c1ccc(Cl)s1 [Example 31, 5-chloro-N-[(1S,2R)-2-ethyl-1-(hydroxymethyl)-4-methylpentyl]thiophene-2-sulfonamide]	4.4	
CC[C@H](c1ccc(OC)cc1)[C@@H](CO)NS(=O)(=O)c1ccc(Cl)s1 [Example 32, 5-chloro-N-[(1S,2R)-1-(hydroxymethyl)-2-(4-methoxyphenyl)butyl]thiophene-2-sulfonamide]	5	
CCC[C@H](C)[C@@H](CO)NS(=O)(=O)c1ccc(Cl)s1 [Example 33, 5-chloro-N-[(1S,2S)-1-(hydroxymethyl)-2-methylpentyl]thiophene-2-sulfonamide]	6.5	
CCC[C@H](CC)[C@@H](CO)NS(=O)(=O)c1ccc(Cl)s1 [Example 34, 5-chloro-N-[(1S,2S)-2-ethyl-1-(hydroxymethyl)pentyl]thiophene-2-sulfonamide]	5.9	
CCC[C@H](CC(C)C)[C@@H](CO)NS(=O)(=O)c1ccc(Cl)s1 [Example 35, 5-chloro-N-[(1S,2R)-1-(hydroxymethyl)-4-methyl-2-propylpentyl]thiophene-2-sulfonamide]	3.7	

SMILES	fold induction at 20 µg/mL [1]	fold induction at 20 µg/mL
CCC[C@H](c1ccc(OC)cc1)[C@@H](CO)NS(=O)(=O)c1ccc(Cl)s1 [Example 36, 5-chloro-N-[(1S,2R)-1-(hydroxymethyl)-2-(4-methoxyphenyl)pentyl]thiophene-2-sulfonamide]	3.8	
CCCCCC[C@@H](CCC)[C@@H](CO)NS(=O)(=O)c1ccc(Cl)s1 [Example 37, 5-chloro-N-[(1S,2R)-1-(hydroxymethyl)-2-propyloctyl]thiophene-2-sulfonamide]	4.8	
CCC[C@H](c1ccccc1)[C@@H](CO)NS(=O)(=O)c1ccc(Cl)s1 [Example 38, 5-chloro-N-[(1S,2R)-1-(hydroxymethyl)-2-phenylpentyl]thiophene-2-sulfonamide]	4.1	
CCCCC[C@H](C)[C@@H](CO)NS(=O)(=O)c1ccc(Cl)s1 [Example 39, 5-chloro-N-[(1S,2S)-1-(hydroxymethyl)-2-methylheptyl]thiophene-2-sulfonamide]	5.7	
CCCC(CCC)[C@@H](CO)NS(=O)(=O)c1ccc(Cl)s1 [Example 40, 5-chloro-N-[(1S)-2-propyl-1-(hydroxymethyl)pentyl]thiophene-2-sulfonamide]	3.9	
CCCCC[C@H](CC)[C@@H](CO)NS(=O)(=O)c1ccc(Cl)s1 [Example 41, 5-chloro-N-[(1S,2S)-2-ethyl-1-(hydroxymethyl)heptyl]thiophene-2-sulfonamide]	4.7	
CCCCC[C@H](CC(C)C)[C@@H](CO)NS(=O)(=O)c1ccc(Cl)s1 [Example 42, 5-chloro-N-[(1S,2R)-1-(hydroxymethyl)-2-isobutylheptyl]thiophene-2-sulfonamide]	3.4	
CCCCC[C@H](c1ccc(OC)cc1)[C@@H](CO)NS(=O)(=O)c1ccc(Cl)s1 [Example 43, 5-chloro-N-[(1S,2R)-1-(hydroxymethyl)-2-(4-methoxyphenyl)heptyl]thiophene-2-sulfonamide]	1.7	
CCCCCC[C@@H](CCCCC)[C@@H](CO)NS(=O)(=O)c1ccc(Cl)s1 [Example 44, 5-chloro-N-[(1S,2R)-1-(hydroxymethyl)-2-pentyloctyl]thiophene-2-sulfonamide]	1.6	
CCCCC[C@H](c1ccccc1)[C@@H](CO)NS(=O)(=O)c1ccc(Cl)s1 [Example 45, 5-chloro-N-[(1S,2R)-1-(hydroxymethyl)-2-phenylheptyl]thiophene-2-sulfonamide]	2.1	
C[C@@H](c1ccccc1)[C@@H](CO)NS(=O)(=O)c1ccc(Cl)s1 [Example 46, 5-chloro-N-[(1S,2S)-1-(hydroxymethyl)-2-phenylpropyl]thiophene-2-sulfonamide]	5.8	
CC(C)C[C@@H](c1ccccc1)[C@@H](CO)NS(=O)(=O)c1ccc(Cl)s1 [Example 47, 5-chloro-N-[(1S,2S)-1-(hydroxymethyl)-4-methyl-2-phenylpentyl]thiophene-2-sulfonamide]	5.4	
C[C@@H](c1ccco1)[C@@H](CO)NS(=O)(=O)c1ccc(Cl)s1 [Example 48, 5-chloro-N-[(1S,2R)-2-(2-furyl)-1-(hydroxymethyl)propyl]thiophene-2-sulfonamide]	4.7	
CC[C@@H](c1ccco1)[C@@H](CO)NS(=O)(=O)c1ccc(Cl)s1 [Example 49, 5-chloro-N-[(1S,2R)-2-(2-furyl)-1-(hydroxymethyl)butyl]thiophene-2-sulfonamide]	6.1	
CC(C)C[C@@H](c1ccco1)[C@@H](CO)NS(=O)(=O)c1ccc(Cl)s1 [Example 50, 5-chloro-N-[(1S,2R)-2-(2-furyl)-1-(hydroxymethyl)-4-methylpentyl]thiophene-2-sulfonamide]	7.7	
